These results are taken from EP4729518A1, “CRYSTAL FORM OF METHIONINE ADENOSYLTRANSFERASE 2A HETEROCYCLIC INHIBITOR, PREPARATION METHOD THEREFOR, AND USE THEREOF” (Nanjing Chia Tai Tianqing Pharmaceutical Co., Ltd., priority 2023, dated 2024).

Values after ≈ are worked out from the molar mass of the structure shown. Where two headings read alike, the source gives them in different places.

In one data set the target is T1, MAT2A enzyme (Homo sapiens, UniProt P31153).
T1 construct: purchased BPS 71401
Description: MAT2A enzymatic assay (Biomol Green, OD620). The data set is classed as biochemical. As to the method: • a) First, a 5× MAT2A assay buffer (250 mM Tris-HCl, pH 8.0; 250 mM KCl; 75 mM MgCl2; 0.025% BSA; 0.05% Brij35; 1.5 mM EDTA) was prepared and partially diluted to 1× for later use. • b) Preparation and addition of MAT2A enzyme (BPS, 71401): The MAT2A enzyme was diluted to 3.674 ng/µL (1.67×, final concentration: 2.20 ng/µL) with the 1× MAT2A assay buffer. Using a BioTek (MultiFlo FX) automated dispenser, the 1.67× MAT2A enzyme solution was added to the compound test wells and negative control wells of a plate at 15 µL/well, and meanwhile, the 1× MAT2A assay buffer was added to the blank control wells at 15 µL/well. • c) Preparation and addition of compounds: The test compound was diluted from a 10 mM stock solution to 100 µM with DMSO, and the positive control drug AGI-24512 was diluted under the same conditions. Using a Tecan compound dispenser (D300e), the dilutions were automatically dispensed into each well according to a preset concentration gradient. The dispensed volume was minimal and considered negligible. The concentration gradient started at 1 µM (1/2 log dilution), and a total of 8 gradient points were set. The plate was centrifuged at 2500 rpm for 30 s and incubated at 25 °C for 30 min. • d) Preparation of ATP: 10 mM ATP (Sigma, A7699) was diluted to 700 µM with the 1× MAT2A assay buffer for later use. • e) Preparation and addition of mixed solution of substrate and ATP: A mixed solution was prepared containing the 5× MAT2A assay buffer (3 µL/well), 750 µM L-methionine (Adamas, 01100469) (2.5 µL/well), 700 µM ATP (2.5 µL/well), and double distilled water (2 µL/well). The total amount of the required mixed solution was prepared according to the number of detection wells. Using a BioTek (MultiFlo FX) automated dispenser, the mixed solution was added at 10 µL/well. The resulting mixture was centrifuged at 2500 rpm for 30 s and allowed to react at 25 °C for 150 min. • f) Addition of Biomol Green detection reagent: Using a BioTek (MultiFlo FX) automated dispenser, Biomol Green (Enzo, BML-AK111) was added at 50 µL/well. The plate was centrifuged at 2500 rpm for 30 s and incubated at 25 °C for 20 min. • g) After the reaction was completed, the OD620 values were measured using a Perkin Elmer (Envision 2105) multimode microplate reader.
The inhibition rate was calculated using the following formula: Inhibition rate % = (ODmax −ODsample)/(ODmax −ODmin) × 100% [formula] where: • ODsample represents the OD620 value of the sample well; • ODmin represents the mean OD620 value of the blank control wells containing no enzyme and no test compound; • ODmax represents the mean OD620 value of the negative control wells containing enzyme but no compound. […]

Data set [1] can be described thus: Heating experiment via DSC followed by XRD. The data set is classed as physicochemical. The text has this: The heated samples were then collected and subjected to XRD analysis. Table 27: Summary of heating test results for various crystal forms
Background: DSC measures the heat that a sample takes up or gives off during a temperature scan.

A short description of data set [2]: Dynamic solubility in buffers and water (HPLC, XRD of remaining solid). The class given is physicochemical. The settings on record: 37 °C; for solubility at 1 h / solubility at 4 h / solubility at 24 h: thermodynamic from solid, feed concentration 10 mg/mL. As to the method:
2.1. Hydrochloric acid solution at pH 1.0: A specified amount (9.00 mL) of hydrochloric acid was taken, diluted to 1000 mL with water, and shaken well to give the desired solution.
0.2 mol/L potassium dihydrogen phosphate solution: 27.22 g of potassium dihydrogen phosphate was taken, and dissolved and diluted to 1000 mL with water.
0.2 mol/L sodium hydroxide solution: 8.00 g of sodium hydroxide was taken, and dissolved and diluted to 1000 mL with water.
250 mL of a 0.2 mol/L potassium dihydrogen phosphate solution was taken and mixed with the specified amount of a 0.2 mol/L sodium hydroxide solution indicated in the table below. Then, the mixture was diluted to 1000 mL with water and shaken well to give the desired solution. Table 23: Phosphate buffer
Determination of the 1-, 4-, and 24-hour solubilities of the sample in four solvent systems (pH 1.0 buffer, pH 4.5 buffer, pH 6.8 buffer, and water) was conducted with a feed concentration of 10 mg/mL by shaking (400 rpm) at 37 °C. At each time point, a sample was taken, centrifuged (10000 rpm, 2 min), and filtered (through a 0.22 µm PTFE filter membrane, with the initial filtrate discarded). The HPLC concentration of the filtrate was then determined, and the remaining solid was subjected to XRD analysis. Table 30. Summary of dynamic solubility test results for crystal form G

A short description of data set [3]: Room-temperature solubility in solvents. The data set is classed as physicochemical. Conditions: thermodynamic from solid, read-out: Solubility S. The protocol:
Determination of the solubility of the crystal form G was conducted in 20 selected solvents at room temperature. A sample (about 2 mg) was weighed and added to a 3-mL vial, and the corresponding solvent listed in Table 29 below was added (100 µL each time) until the solid was dissolved. If the solid was still not completely dissolved after 2 mL of the solvent was added, further addition was stopped. The solubility range in the corresponding solvent was calculated according to the mass of the sample and the volume of the solvent. Table 29: Solubility ranges of crystal form G at room temperature

Data set [4] is described as follows: Solid state stability of crystal forms (XRD and HPLC). The class given is physicochemical. The protocol: Samples of the crystal forms B, H, and L were placed under the conditions of 25 °C/60% RH and 40 °C/75% RH for 17 days, and then the physicochemical stability of the samples was tested using XRD and HPLC. Table 24: Summary of solid state stability evaluation of crystal forms

T1 sequence (P31153 whole entry): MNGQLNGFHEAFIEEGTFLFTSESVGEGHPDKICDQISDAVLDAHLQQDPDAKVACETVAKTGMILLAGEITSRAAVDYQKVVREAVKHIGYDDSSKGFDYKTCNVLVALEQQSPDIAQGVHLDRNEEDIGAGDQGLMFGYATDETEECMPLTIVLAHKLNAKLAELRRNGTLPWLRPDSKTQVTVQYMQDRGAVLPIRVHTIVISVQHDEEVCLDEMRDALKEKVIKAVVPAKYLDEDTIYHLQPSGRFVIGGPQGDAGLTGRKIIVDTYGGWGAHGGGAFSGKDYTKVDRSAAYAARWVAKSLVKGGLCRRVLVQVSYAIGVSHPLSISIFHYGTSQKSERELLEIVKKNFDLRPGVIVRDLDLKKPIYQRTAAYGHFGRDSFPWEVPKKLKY

At MAT2A enzyme, `Cc1[nH]c2c(N3CCCCC3)c(-c3ccccc3)nn2c(=O)c1-c1ccc(O)cc1` [AGI-24512, reference compound] came in with an IC50 of 26.8 nM. This lies in the double-digit nanomolar range.

For the molecule `Cn1cc2cc(-c3nn4ccc(C5CC5)nc4c(-c4ccc(OC(F)F)cc4)c3=O)ccc2n1` [Crystal form G, 2-cyclopropyl-9-[4-(difluoromethoxy)phenyl]-7-(2-methyl-2H-indazol-5-yl)-8H-pyrimido[1,2-b]pyridazin-8-one], the “After heating (crystal form)” value in data set [1] (Heating temperature 110 °C) is on record as “Crystal form A”. The Crystal form change entry is recorded as “Yes” in data set [2] (H2O, 1 h); “Yes” in data set [2] (H2O, 4 h); “Yes” in data set [2] (H2O, 24 h); “Yes” in data set [2] (pH 1.0, 1 h); “Yes” in data set [2] (pH 1.0, 4 h); “Yes” in data set [2] (pH 1.0, 24 h). Further, the Crystal form change result in data set [2] (pH 4.5, 1 h) was “Yes”; in data set [2] (pH 4.5, 4 h), “Yes”; in data set [2] (pH 4.5, 24 h), “Yes”; in data set [2] (pH 6.8, 1 h), “Yes”; in data set [2] (pH 6.8, 4 h), “Yes”; in data set [2] (pH 6.8, 24 h), “Yes”. The solubility at 1 h was 0.32 µg/mL (≈ 0.696 µM) in data set [2] (pH 1.0 buffer, simulated gastric fluid, pH 1.0, 1 h) and 0.13 µg/mL (≈ 0.283 µM) in data set [2] (water, H2O, 1 h). In addition, the solubility at 4 h in data set [2] (pH 1.0 buffer, simulated gastric fluid, pH 1.0, 4 h) was 0.16 µg/mL (≈ 0.348 µM); in data set [2] (pH 4.5 buffer, aqueous buffer, pH 4.5, 4 h), 0.07 µg/mL (≈ 0.152 µM); in data set [2] (water, H2O, 4 h) it was 0.09 µg/mL (≈ 0.196 µM). For the same molecule, the solubility at 24 h in data set [2] (pH 1.0 buffer, simulated gastric fluid, pH 1.0, 24 h) was 0.12 µg/mL (≈ 0.261 µM); in data set [2] (pH 4.5 buffer, aqueous buffer, pH 4.5, 24 h), 0.08 µg/mL (≈ 0.174 µM); in data set [2] (pH 6.8 buffer, aqueous buffer, pH 6.8, 24 h) it was 0.06 µg/mL (≈ 0.131 µM). The solubility in data set [3] (organic solvent or mixture, 1,4-Dioxane, room temperature) is 4800 to 6300 µg/mL (≈ 10400 to 13700 µM); in data set [3] (organic solvent or mixture, ACN, room temperature), approximately 1100 µg/mL (≈ 2390 µM); in data set [3] (organic solvent or mixture, ACN/H2O (10:1), room temperature), less than 1100 µg/mL; in data set [3] (organic solvent or mixture, Acetone, room temperature) it was approximately 1000 µg/mL (≈ 2180 µM); in data set [3] (organic solvent or mixture, CHCl3, room temperature), more than 10500 µg/mL; in data set [3] (organic solvent or mixture, DCM, room temperature), 1900 to 2300 µg/mL (≈ 4140 to 5010 µM). Besides, the solubility in data set [3] (organic solvent or mixture, DMAc, room temperature) is more than 40000 µg/mL; in data set [3] (organic solvent or mixture, DMF, room temperature) it was 21000 to 42000 µg/mL (≈ 45700 to 91400 µM); in data set [3] (organic solvent or mixture, DMSO, room temperature), 9500 to 19000 µg/mL (≈ 20700 to 41400 µM); in data set [3] (organic solvent or mixture, EtOAc, room temperature), 1100 to 2200 µg/mL (≈ 2390 to 4790 µM); in data set [3] (organic solvent or mixture, EtOH, room temperature), approximately 1200 µg/mL (≈ 2610 µM); in data set [3] (organic solvent or mixture, IPA, room temperature), approximately 1000 µg/mL (≈ 2180 µM). The solubility in data set [3] (organic solvent or mixture, IPAc, room temperature) was approximately 1100 µg/mL (≈ 2390 µM); in data set [3] (organic solvent or mixture, MEK, room temperature) it was 5300 to 10500 µg/mL (≈ 11500 to 22900 µM); in data set [3] (organic solvent or mixture, MIBK, room temperature), 2000 to 2500 µg/mL (≈ 4350 to 5440 µM); in data set [3] (organic solvent or mixture, MTBE, room temperature), less than 1100 µg/mL; in data set [3] (organic solvent or mixture, MeOH, room temperature), 3710 to 5500 µg/mL (≈ 8070 to 12000 µM); in data set [3] (organic solvent or mixture, MeOH/DCM (1:1), room temperature), 5000 to 10000 µg/mL (≈ 10900 to 21800 µM). The solubility in data set [3] (organic solvent or mixture, THF, room temperature) was 7000 to 10500 µg/mL (≈ 15200 to 22900 µM); in data set [3] (water, H2O, room temperature) it was less than 1100 µg/mL.

Turning to `Cn1cc2cc(-c3nn4ccc(C5CC5)nc4c(-c4ccc(OC(F)F)cc4)c3=O)ccc2n1` [Crystal form H, 2-cyclopropyl-9-[4-(difluoromethoxy)phenyl]-7-(2-methyl-2H-indazol-5-yl)-8H-pyrimido[1,2-b]pyridazin-8-one], the Crystal form change entry in data set [4] (0 day) is recorded as “No”; in data set [4] (25 °C/60% RH/17 days), “No change in crystal form was observed, but the crystallinity decreased”; in data set [4] (40 °C/75% RH/17 days), “No”. Moreover, the Purity turned out to be 98.62% in data set [4] (0 day), 98.59% in data set [4] (25 °C/60% RH/17 days) and 98.59% in data set [4] (40 °C/75% RH/17 days). In addition, the “change in crystal form or purity” value in data set [4] (25 °C/60% RH for 17 days) is given as “no change in purity, but had a decrease in crystallinity”; in data set [4] (40 °C/75% RH for 17 days), “no change in either crystal form or purity”. Further, the “After heating (crystal form)” value in data set [1] (Heating temperature 250 °C) is on record as “Crystal form A”.

The term IC50 denotes the concentration that gives 50% inhibition. A low value points to inhibition by little substance. What is called solubility is how much of the substance goes into solution per volume.
